Experimental data from paper PMC9007940, “Oscillatory calcium release and sustained store-operated oscillatory calcium signaling prevents differentiation of human oligodendrocyte progenitor cells” (Scientific Reports, 2022).

What was measured:
[1] = target: T1, metabotropic type 5 glutamate receptor (mGluR5) (Homo sapiens, UniProt P41594); test: GCaMP6s calcium imaging dose-response (AUC) in primary human OPCs, endogenous receptor; type: cell-based
T1 construct: gene GRM5

[2] = test system: T2, muscarinic acetylcholine receptor M3 (M1/3R); test: GCaMP6s calcium imaging dose-response (AUC) in primary human OPCs, endogenous M1/M3 receptors; type: cell-based
T2 construct: gene CHRM3

T1 sequence (P41594 21-1212): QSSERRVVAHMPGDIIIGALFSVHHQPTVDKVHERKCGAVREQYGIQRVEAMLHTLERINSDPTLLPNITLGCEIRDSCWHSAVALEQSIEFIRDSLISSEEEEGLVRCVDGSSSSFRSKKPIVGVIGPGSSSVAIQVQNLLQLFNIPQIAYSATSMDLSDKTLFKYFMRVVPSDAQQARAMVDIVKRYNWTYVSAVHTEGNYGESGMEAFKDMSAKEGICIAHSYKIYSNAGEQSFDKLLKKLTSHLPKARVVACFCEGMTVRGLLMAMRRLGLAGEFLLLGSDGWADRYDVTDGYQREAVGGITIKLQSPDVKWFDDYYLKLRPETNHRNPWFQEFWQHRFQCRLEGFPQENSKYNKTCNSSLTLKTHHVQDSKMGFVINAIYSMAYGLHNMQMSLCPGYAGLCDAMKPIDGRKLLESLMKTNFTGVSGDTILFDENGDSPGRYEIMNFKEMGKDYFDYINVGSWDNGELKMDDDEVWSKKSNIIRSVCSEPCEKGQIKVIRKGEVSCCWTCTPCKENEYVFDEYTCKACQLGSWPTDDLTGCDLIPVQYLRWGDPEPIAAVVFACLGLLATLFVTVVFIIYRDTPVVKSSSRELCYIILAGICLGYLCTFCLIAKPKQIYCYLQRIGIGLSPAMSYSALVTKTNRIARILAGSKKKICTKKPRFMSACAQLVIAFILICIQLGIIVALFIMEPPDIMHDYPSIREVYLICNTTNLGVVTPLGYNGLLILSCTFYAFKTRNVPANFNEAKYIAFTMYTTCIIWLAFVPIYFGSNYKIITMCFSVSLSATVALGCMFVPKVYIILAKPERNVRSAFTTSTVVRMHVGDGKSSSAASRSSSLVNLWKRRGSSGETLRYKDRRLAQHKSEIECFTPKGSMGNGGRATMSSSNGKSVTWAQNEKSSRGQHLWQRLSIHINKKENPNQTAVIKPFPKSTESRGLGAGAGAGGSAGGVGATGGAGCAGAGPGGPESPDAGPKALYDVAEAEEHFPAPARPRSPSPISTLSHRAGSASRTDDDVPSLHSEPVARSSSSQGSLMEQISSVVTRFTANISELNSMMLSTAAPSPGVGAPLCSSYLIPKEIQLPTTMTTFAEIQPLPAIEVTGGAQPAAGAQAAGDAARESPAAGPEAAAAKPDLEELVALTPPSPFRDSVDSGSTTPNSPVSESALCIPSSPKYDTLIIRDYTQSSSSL

| EC50 [1] [µM] | SMILES | EC50 [2] [µM] |
| --- | --- | --- |
| 1300 | NC(C(=O)O)c1cc(O)ccc1Cl (centres unmarked) [CHPG] | – |
| – | C[N+](C)(C)CC#CCN1CCCC1=O [Oxo-M] | 2.2 |
